Laboratory results: patent US7982018B2, “Modified corticotropin releasing factor peptides and uses thereof” (Conjuchem, LLC, priority 2006, dated 2011)
Where no end group is shown, it is not given here.

System: Male C57BL/6 mice
Test: Food intake in mice after a single intravenous injection of urocortin derivatives
Format: in vivo
Protocol: The potency of several modified urocortin derivatives were determined by measuring food intake in mice. A study was performed with native human urocortin 1, 2 and 3 to select a dose and to determine whether the IV route was adequate for native peptides. Following the initial study, two additional studies were performed in which the effect of modified derivatives and native peptides were compared.
Male C57BL/6 mice (22-26g) were housed 3 per cage and fed with standard chow. The night before dosing, mice were food restricted i.e., they were given only half of the amount of food ingested during the previous night. Dosing was performed between 9 and 10 a.m. Mice received a single intravenous injection (5 ml/kg via the tail vein) of saline or urocortin derivatives diluted in saline. Food intake was measured by placing preweighed pellets in the cage and weighing the uneaten pellets at 1, 2, 4, 6, 24 and 48 hours postdose.

[1] = Study No. 2, FIG. 3, (Ucn II and III derivatives)
[2] = Study No. 2, FIG. 3, 20 nmol/kg (Ucn I derivatives)

## FTLSL DVPTN IMNLL FNIAK(ε-AEEA-MPA) ARNLR AQAAA NAHLM AQI-NH2 (FTLSLDVPTNIMNLLFNIAKARNLRAQAAANAHLMAQI; Lys-AEEA-MPA, C-terminal amide) [SEQ ID No. 85, Modified peptide of human urocortin 3]
[1]
  'rebound' of food intake as compared to the control: increase of food intake as compared to the control

## DNPSLSIDLTFHLLRTLLELARTQSQRERAEQNRIIFDSV-NH2 (DNPSLSIDLTFHLLRTLLELARTQSQRERAEQNRIIFDSV-NH2; listed as Homo sapiens) [human urocortin 1, Human Urocortin 1 (40 Amino-acids), native peptide]
[2]
  time up to which food intake was reduced: up to 4 hours

## IVLSLDVPIGLLQILLEQARAK-(ε-AEEA-MPA) AAR EQATT NARIL ARV-NH2 (IVLSLDVPIGLLQILLEQARAKAAREQATTNARILARV; Lys-AEEA-MPA, C-terminal amide) [SEQ ID No. 83, Modified peptide of human urocortin 2]
Study No. 1, FIG. 1, 85 nmol/kg, 4-6 hour time interval
  inhibition of food intake as compared to the control group: 50%
[1]
  duration of activity on food intake compared with the other tested compounds: most prolonged activity

## DNPSLSIDLTFHLLRTLLELAK-(ε-AEEA-MPA)TQS QRERA EQNRI IFDSV-NH2 (DNPSLSIDLTFHLLRTLLELAKTQSQRERAEQNRIIFDSV; Lys-AEEA-MPA, C-terminal amide) [SEQ ID No. 80, Modified peptide of human urocortin 1]
[2]
  'rebound' of food intake as compared to the control: increase of food intake as compared to the control

## IVLSLDVPIGLLQILLEQARARAAREQATTNARILARVGHC-NH2 (IVLSLDVPIGLLQILLEQARARAAREQATTNARILARVGHC-NH2; listed as Homo sapiens) [SEQ ID No. 92]
Study No. 1, FIG. 1, 85 nmol/kg, 1-2 h postdose
  food intake in the 1-2 h time period versus control: back to the control
Study No. 1, FIG. 1, normal mice, 85 nmol/kg
  time over which food intake was reduced/inhibited postdose: up to 1 hour
Study No. 1, FIG. 2, 85 nmol/kg, at 6 hours postdose
  cumulative food intake versus saline control: still lower than the saline control

## FTLSLDVPTNIMNLLFNIAKAKNLRAQAAANAHLMAQI-NH2 (FTLSLDVPTNIMNLLFNIAKAKNLRAQAAANAHLMAQI-NH2; listed as Homo sapiens) [Urocortin III, Human Urocortin 3 (38 Amino-acids), native peptide]
[1]
  'rebound' of food intake as compared to the control: increase of food intake as compared to the control
  activity on food intake versus the free peptide: much less active than the free peptide
  period of decreased food intake: decreased food intake during the first hour after injection only
